Reference: US11123398B2, “Chemotherapeutic combinations of cationic antimicrobial peptides and chemotherapeutics” (LYTIX BIOPHARMA AS, priority 2014, dated 2021)
Non-standard residues stand in square brackets, D forms with d. Residues, ends and D or L forms follow the SMILES beside them. Dip = N[C@H](C(=O)O)C(c1ccccc1)c1ccccc1

Assays:
Format in all cases: cell-based, human
[1] = tested on: IGROV-1; conditions: 24 h
Method: (§1) Tumor cells were plated in 96-well flat-bottom microtitration plates (Nunc, Dutscher, Brumath, France) and incubated at 37° C. for 24 hours before treatment in 190 μl of drug-free culture medium supplemented or not with 10% FBS for adherent or suspension growing cell lines, respectively.
(§2) The adherent cell lines were washed once with 200 μl FBS-free culture medium before treatment. […] top dose of 400 μM (range 4×10^−4 to 4×10^−10 M), with 1% (final concentration) Triton X-100 as positive control and FBS-free culture medium as negative control. The cells (190 μl) were incubated in a 200 μl final volume of FBS-free culture medium containing test substances at 37° C. under 5% CO2.
(§3) Three independent experiments were performed, each concentration being tested in quadruplicate. Control cells were treated with vehicle alone. At the end of treatments, the cytotoxic activity was evaluated by a MTS assay (see § 3.3.).
(§4) Like MTT, MTS is bioreduced by cells into a formazan product that is directly soluble in culture medium without processing, unlike MTT.
(§5) At the end of the cells treatment, 40 μl of a 0.22 μm filtered freshly combined solution of MTS (20 ml at 2 mg/ml, Ref G1111, Batch 235897, Exp March 2009, Promega, Charbonnières, France) and PMS (1 ml at 0.92 mg/ml, Ref P9625, Batch 065K0961, Sigma) in Dulbecco's Phosphate Buffered Saline (DPBS, Ref 17-513Q, Batch 6MB0152, Cambrex), were added in each well. Culture plates were incubated for 2 h at 37° C. Absorbency (OD) were measured at 490 nm in each well using VICTOR^3™ 1420 multilabeled counter (Wallac, PerkinElmer, Courtaboeuf, France).
(§6) IC50: drug concentration to obtain a 50% inhibition of cell proliferation.
(§7) The dose-response curves were plotted using XLFit 3 (IDBS, United Kingdom). The IC50 determination values were calculated using the XLFit 3 software from semi-log curves. Individual IC50 determination values as well as mean and SD values were generated.

[2] = tested on: MCF-7; conditions: 24 h
Method: as §1, §2, §3, §4, §5, §6, §7

[3] = tested on: HL-60; conditions: 24 h
Method: as §1, §2, §3, §4, §5, §6, §7

[4] = tested on: HUV-EC-C normal cell line; conditions: 24 h
Method: as §1, §2, §3, §4, §5, §6, §7

[5] = tested on: K-562; conditions: 24 h
Method: as §1, §2, §3, §4, §5, §6, §7

[6] = tested on: A375 cells; experiment: Release of HMGB1 (Western blot); conditions: 35 μM, up to 60 min
Method: A375 cells were seeded with 3×10^5 cells/well in 6-well plates in a complete media, and allowed to adhere overnight. Cells were treated with LTX-315 or LTX-328 at 35 μM, and incubated at 37° C. and 5% CO2 for different time points (5, 10, 15, 30, 60 min), and negative controls were serum-free RPMI-1650. Supernatants (S) were collected and centrifuged at 1,400 g for five minutes, and cell lysates (L) were harvested after washing with PBS twice and then subsequently lysed using a 4× Sample buffer (Invitrogen, number), 0.1 M DTT (Sigma number) and water. Supernatants were concentrated using Amicon Ultra 50K centrifugal filters (Millipore UFC505024), and the cell lysate was sonicated. Both supernatants and lysate were boiled and resolved in a 10% sodium dodecyl sulfate polyacrylamide gel electrophoresis (SDS-PAGE), and then electro transferred to a polyvindiline difluoride (PVDF) membrane (Millipore). The membrane was blocked in 5% milk and incubated with the HMGB1 antibody (rabbit, polyclonal, abcam ab 18256); the membrane was then rinsed several times with TBST, incubated with a horseradish peroxidase (HRP)-conjugated secondary antibody (abcam ab6721), rinsed again with TBST and then developed using WB Luminol Reagent (Santa Cruz Biotechnology, Heidelberg, Germany).

[7] = tested on: A375 cells; experiment: TEM electron microscopy, A375
Method: A375 cells were seeded at 1×10^5 cells per well in 6-well plates and allowed to grow for three days to optimize membrane structures in the culture, and the media was changed on the second day. Cells were washed twice in serum-free RPMI before being treated with LTX-315 dissolved in serum-free RPMI at 5, 10 and 25 μg/ml, with serum-free RPMI as a negative control. Cells were then washed with PBS twice before fixation for 24 hours in 4° C. with 4% formaldehyde and 1% gluteralaldehyde in a Hepes buffer at pH 7.8. Dehydration and post-fixation protocols included incubation in a 5% buffered tannic acid and incubation in a 1% osmium-reduced ferrocyanide. Ultrathin sections were prepared, and uranyl acetate (5%) and Reynolds's lead citrate were used for staining and contrasting. Samples were examined on a JEOL JEM-1010 transmission electron microscope, and images were taken with an Olympus Morada side-mounted TEM CCD camera (Olympus soft imaging solutions, GmbH, Germany).

[8] = tested on: panel of 10 lymphoma cell lines
Method: (§8) Tumor cells were plated in 96-well flat-bottom microtitration plates (Nunc, Dutscher, Brumath, France) and incubated at 37° C. for 24 hours before treatment in 190 μl of drug-free and FBS-free culture medium.
[…] compounds in ¼ dilution step with a top dose of 400 μM (range 4×10^−4 to […]), with 1% (final concentration) Triton X-100 as positive control and FBS-free culture medium as negative control. The cells (190 μl) were incubated in a 200 μl final volume of FBS-free culture medium containing test substances at 37° C. under 5% CO2.
(§9) Three independent experiments were performed, each concentration being issued from quadruplicate. Control cells were treated with vehicle alone. At the end of treatments, the cytotoxic activity was evaluated by a MTS assay (see § 3.3 below).
as §4, §5
(§10) 4.1. IC50 Data was Determined as in Example 1

[9] = tested on: Raji cell line; conditions: 4 h
Method: as §8
(§11) Tumor cells were incubated for 4 hours with 10 concentrations of compounds in ¼ dilution step with a top dose of 400 μM (range 4×10^−4 to […]), with 1% (final concentration) Triton X-100 as positive control and FBS-free culture medium as negative control. The cells (190 μl) were incubated in a 200 μl final volume of FBS-free culture medium containing test substances at 37° C. under 5% CO2.
as §9, §4, §5, §10

[10] = tested on: U-937 cell line; conditions: 4 h
Method: as §8, §11, §9, §4, §5, §10

Q: How did the IC50 [1] turn out when NCCCC[C@H](NC(=O)[C@@H](NC(=O)[C@H](Cc1c[nH]c2ccccc12)NC(=O)[C@H](CCCCN)NC(=O)[C@H](CCCCN)NC(=O)[C@H](Cc1c[nH]c2ccccc12)NC(=O)[C@H](Cc1c[nH]c2ccccc12)NC(=O)[C@H](CCCCN)NC(=O)[C@@H](N)CCCCN)C(c1ccccc1)c1ccccc1)C(N)=O [LTX-315, K-K-W-W-K-K-W-Dip-K-NH2] (H-KKWWKKW[Dip]K-NH2) was run?
A: The IC50 was 6.37 µM.

Q: And the IC50 [2]?
A: Its IC50 is 1.94 µM.

Q: And the IC50 [3]?
A: The IC50 was 2.07 µM.

Q: And the IC50 [4]?
A: The IC50 was 23 µM.

Q: And the IC50 [5]?
A: The IC50 was 3.27 µM.

Q: And the “HMGB1 translocation from cell lysate to supernatant” value [6]?
A: The value was “gradual translocation from the cell lysate to the supernatant detected”.

Q: And the “Cells displaying vacuolization (TEM)” value ([7]; 3.5 μM, 60 minutes)?
A: The value was “approximately 20%”.

Q: And the “Number of necrotic cells (TEM)” value ([7]; 3.5 μM, 60 minutes)?
A: The value was “less than 5%”.

Q: What about the “Cells displaying vacuolization (TEM)” value ([7]; 17 μM, 60 min) of the same molecule?
A: Its value is 4%.

Q: What about the “Cells with necrotic morphology, loss of plasma membrane integrity (TEM)” value ([7]; 17 μM, 60 min) of the same molecule?
A: The value was “approximately 40%”.

Q: And the “Potency rank among the five compounds tested, lymphoma panel” value [8]?
A: The value was “most potent compound from the five compounds tested”.

Q: And the “IC50 range against 10 human lymphoma cell lines” value ([8]; conclusion)?
A: The value was “micromolar range”.

Q: And the IC50 [9]?
A: The IC50 was 4.93 ± 1.03 µM.

Q: And the IC50 [10]?
A: Its IC50 is 1.15 ± 0.42 µM.
